Data from patent publication US20020022657A1, “Methods for modulating neuronal cell death” (priority 1998, published 2002).

Test system: Aβ-induced toxicity
Experiment: Aβ-induced toxicity, neuroprotection by Aβ-interferer (FIG. 6)
Format: cell-based
Conditions: Aβ: laminin molar ratio of 1:10^−3; internal positive control

laminin was tested, and the Aβ-induced toxicity was “neuroprotective”.
